Like-named read-outs stand apart in the source and are kept apart here.
Key:
human androgen receptor [1] = molecular target: T1, human androgen receptor (Homo sapiens, UniProt P10275); assay type: cell-based
T1 construct: host or cells: Chinese hamster ovary (CHO) cells, AR-EcoScreen GR KO M1, stably transfected, glucocorticoid receptor knocked out
T1 sequence (P10275 1-920): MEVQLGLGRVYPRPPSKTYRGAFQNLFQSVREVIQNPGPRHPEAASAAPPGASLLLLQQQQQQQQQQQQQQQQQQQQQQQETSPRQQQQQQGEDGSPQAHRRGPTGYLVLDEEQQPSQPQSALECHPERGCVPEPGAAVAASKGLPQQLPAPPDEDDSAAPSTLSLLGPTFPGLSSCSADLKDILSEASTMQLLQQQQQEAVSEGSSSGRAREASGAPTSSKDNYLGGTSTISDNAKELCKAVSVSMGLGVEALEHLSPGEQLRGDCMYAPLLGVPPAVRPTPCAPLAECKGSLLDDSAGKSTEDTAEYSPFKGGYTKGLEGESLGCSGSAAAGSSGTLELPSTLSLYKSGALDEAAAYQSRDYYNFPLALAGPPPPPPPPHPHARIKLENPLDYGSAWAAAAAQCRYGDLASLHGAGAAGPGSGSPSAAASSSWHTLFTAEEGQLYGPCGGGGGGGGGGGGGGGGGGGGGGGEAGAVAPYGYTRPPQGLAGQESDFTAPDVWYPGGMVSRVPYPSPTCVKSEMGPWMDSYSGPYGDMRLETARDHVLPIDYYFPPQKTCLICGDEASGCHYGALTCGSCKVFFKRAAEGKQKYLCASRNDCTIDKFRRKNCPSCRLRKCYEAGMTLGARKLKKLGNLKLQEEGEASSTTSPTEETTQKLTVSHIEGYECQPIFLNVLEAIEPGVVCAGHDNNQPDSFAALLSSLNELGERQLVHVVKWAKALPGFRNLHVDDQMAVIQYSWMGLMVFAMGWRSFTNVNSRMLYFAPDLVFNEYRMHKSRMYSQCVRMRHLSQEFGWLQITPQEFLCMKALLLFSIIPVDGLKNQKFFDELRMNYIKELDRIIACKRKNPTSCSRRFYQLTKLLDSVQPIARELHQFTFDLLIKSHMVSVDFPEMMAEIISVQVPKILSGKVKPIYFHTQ

estrogen receptor (ER) [2] = tested on: estrogen receptor (ER)
TK6 cells [3] = tested on: TK6 cells; parameters: method as in Takakura et al. [2014]; settings: concentrations below 12.5 µM, 3 h of treatment, with or without human and rat liver S9; ref Takakura et al. [2014]; cited from earlier work
TK6 cells [4] = tested on: TK6 cells
human androgen receptor [5] = molecular target: T1, human androgen receptor; assay type: cell-based; remark: listed apart in the source
estrogen receptor (ER) [6] = assay type: cell-based, human
AR = tested on: AR; parameters: method as in Molina-Molina et al. [2014]; settings: androgen-sensitive PALM cells; ref Molina-Molina et al. [2014]; cited from earlier work
[7] = DON compounds, S9 + PHI + PHII cofactors
[8] = DON compounds, S9 + PHII cofactors
[9] = without exogenous MAS, initial concentration-range finding trials, 24 h
[10] = DON compounds, S9 alone, [95% CI]
[11] = DON compounds, no MAS, [95% CI]
[12] = DON compounds, S9 + PHI + PHII cofactors, [95% CI]
[13] = DON compounds, S9 + PHII cofactors, [95% CI]
[14] = ZEN compounds, S9 + PHI cofactors, [95% CI]
[15] = ZEN compounds, S9 alone, [95% CI]

CC1=C[C@H]2O[C@@H]3[C@H](O)C[C@](C)([C@@]2(CO)[C@H](O)C1=O)[C@]31CO1 [DON, deoxynivalenol]
AR antagonism IC30 (human androgen receptor [1]; [7]): <LOD | AR antagonism IC30 (human androgen receptor [1]; [8]): <LOD | AR antagonism IC30 (human androgen receptor [1]; DON compounds, S9 alone): <LOD | AR antagonism IC30 (human androgen receptor [1]; DON compounds, no MAS): <LOD | AR antagonism IC30 (human androgen receptor [1]; [9]): <LOD | ER agonism EC10 (estrogen receptor (ER) [2]; [7]): <LOD | ER agonism EC10 (estrogen receptor (ER) [2]; [8]): <LOD | ER agonism EC10 (estrogen receptor (ER) [2]; [10]): <LOD | ER agonism EC10 (estrogen receptor (ER) [2]; [11]): <LOD | ER agonism EC10 (estrogen receptor (ER) [2]; [9]): <LOD | MN formations (TK6 cells [3]): did not induce any significant MN formations | Micronuclei formation (% MN) versus vehicle controls (TK6 cells [4]; 5 h exposure, alone, with S9 alone or S9 with cofactors, ZEN 6.25 and 12.50 µM, DON 0.78 and 1.56 µM): neither ZEN nor DON alone or with the S9 alone or with cofactors had any statistically significant effect on % MN | Micronuclei formation (% MN) versus vehicle control (TK6 cells [4]; 24 h continuous exposure, without MAS, non-cytotoxic test concentrations): No statistically significant increases in % MN | AR agonism EC10 (human androgen receptor [5]; [12]): 0.45 [0.39,0.52] µM | AR agonism EC10 (human androgen receptor [5]; [13]): 0.38 [0.32,0.46] µM | AR agonism EC10 (human androgen receptor [5]; [10]): 0.84 [0.72,0.98] µM | AR agonism EC10 (human androgen receptor [5]; [11]): 0.87 [0.81,0.93] µM | AR agonism EC10 (human androgen receptor [5]; [9]): 0.83 µM | ER antagonism IC30 (estrogen receptor (ER) [6]; [12]): 0.37 [0.25,0.58] µM | ER antagonism IC30 (estrogen receptor (ER) [6]; [13]): 0.25 [0.18,0.38] µM | ER antagonism IC30 (estrogen receptor (ER) [6]; [10]): 0.75 [0.54,1.05] µM | ER antagonism IC30 (estrogen receptor (ER) [6]; [11]): 0.81 [0.69,1.00] µM | ER antagonism IC30 (estrogen receptor (ER) [6]; [9]): 0.91 µM

C[C@H]1CCC[C@H](O)CCC/C=C/c2cc(O)cc(O)c2C(=O)O1 [α-ZEL, α-Zearalenol]
Estrogenic potency relative to ZEN (times more potent) (estrogen receptor (ER) [2]): ~10 times | ER agonism EC10 (estrogen receptor (ER) [2]; [14]): 49.3 [30.2,75.9] pM | ER agonism EC10 (estrogen receptor (ER) [2]; [15]): 4.24 [2.82,6.31] pM | ER agonism EC10 (estrogen receptor (ER) [2]; ZEN compounds, no MAS (S9 −, PHI −, PHII −), [95% CI]): 3.70 [2.51,5.37] pM | ER agonism EC10 (estrogen receptor (ER) [2]; [9]): 3.59 pM | AR antagonistic effect IC50 (AR): micromolar range | AR agonism EC10 (human androgen receptor [5]): <LOD | ER antagonism IC30 (estrogen receptor (ER) [6]; ZEN compounds, S9 + PHI + PHII cofactors, [95% CI]): 5.10 [2.88,8.13] µM | ER antagonism IC30 (estrogen receptor (ER) [6]; [14]): 2.42 [1.35,3.63] µM | ER antagonism IC30 (estrogen receptor (ER) [6]; [15]): 1.75 [0.69,3.02] µM | ER antagonism IC30 (estrogen receptor (ER) [6]; ZEN compounds, no MAS, [95% CI]): 1.03 [0.33,1.78] µM | ER antagonism IC30 (estrogen receptor (ER) [6]; [9]): 1.39 µM

C[C@]12CC[C@@H]3c4ccc(O)cc4CC[C@H]3[C@@H]1CC[C@@H]2O [E2, 17β-estradiol, reference compound]
ER agonistic activity after treatment of cells with only S9 (estrogen receptor (ER) [2]): reduction of ER agonistic activity

CC(=O)OC[C@]12[C@H](O)C(=O)C(C)=C[C@H]1O[C@@H]1[C@H](O)C[C@@]2(C)[C@]12CO2 [15-Ac-DON, 15-acetyl deoxynivalenol]
AR antagonism IC30 (human androgen receptor [1]; [7]): <LOD | AR antagonism IC30 (human androgen receptor [1]; [8]): <LOD | AR antagonism IC30 (human androgen receptor [1]; DON compounds, S9 alone): <LOD | AR antagonism IC30 (human androgen receptor [1]; DON compounds, no MAS): <LOD | AR antagonism IC30 (human androgen receptor [1]; [9]): <LOD | ER agonism EC10 (estrogen receptor (ER) [2]; [7]): <LOD | ER agonism EC10 (estrogen receptor (ER) [2]; [8]): <LOD | ER agonism EC10 (estrogen receptor (ER) [2]; [10]): <LOD | ER agonism EC10 (estrogen receptor (ER) [2]; [11]): <LOD | ER agonism EC10 (estrogen receptor (ER) [2]; [9]): <LOD | AR agonism EC10 (human androgen receptor [5]; [12]): 0.52 [0.45,0.62] µM | AR agonism EC10 (human androgen receptor [5]; [13]): 0.50 [0.45,0.56] µM | AR agonism EC10 (human androgen receptor [5]; [10]): 0.70 [0.62,0.76] µM | AR agonism EC10 (human androgen receptor [5]; [11]): 0.81 [0.74,0.87] µM | AR agonism EC10 (human androgen receptor [5]; [9]): 0.77 µM | ER antagonism IC30 (estrogen receptor (ER) [6]; [12]): 0.48 [0.30,0.72] µM | ER antagonism IC30 (estrogen receptor (ER) [6]; [13]): 0.24 [0.18,0.32] µM | ER antagonism IC30 (estrogen receptor (ER) [6]; [10]): 1.11 [0.81,1.38] µM | ER antagonism IC30 (estrogen receptor (ER) [6]; [11]): 1.09 [0.98, 1.20] µM | ER antagonism IC30 (estrogen receptor (ER) [6]; [9]): 0.99 µM

— PMC11258189, “Estrogenic, androgenic, and genotoxic activities of zearalenone and deoxynivalenol in in vitro bioassays including exogenous metabolic activation” (Mycotoxin Research, 2024)
